In patent US20230183656A1, “METHODS AND COMPOSITIONS FOR PURIFYING ADENO ASSOCIATED VIRUS PARTICLES OR ADENOVIRUSES” (Merck Patent GmbH, priority 2020, published 2023):

Assays:
[1] = cited from earlier work
AAV9 = AAV9 release after cell lysis (titers as in Example 1); format: cell-based; details: with NaCl, FIG. 5
Description: (§1) An AAV2 suspension upstream process is performed including a cell lysis step using various single reagents, like Triton X-100 (T100) or TDAO at various concentrations or 0.5 M NaCl, all at 37° C. The samples were centrifuged at ~13000 g for 5 min at different time points post lysis, and supernatants were removed and stored at -70° C. for assays. Physical titers were measured by enzyme-linked immunosorbent assay (ELISA) using an AAV2 Titration ELISA kit (Progen) following manufacturer’s protocol, genome titers were measured by quantitative PCR (qPCR) targeting a specific sequence within the transfer vector. All reagents and assay protocols are from MilliporeSigma unless otherwise specified. Among all the conditions tested, 0.5 M NaCl was the only one capable of releasing significant amounts of AAV2 at physical titer of e10 vp/mL and genome titer of e9 gc/mL levels (FIG. 1). Moreover, time-dependent effects from 30 min to 90 min post lysis for all 3 single reagents, and concentration-dependent effects from 0.5% to 1% for both single detergents have been observed (FIG. 1).
An AAV9 suspension upstream process is performed as in Example 1 but using both single reagents and double reagents combined with NaCl.

AAV2 = AAV2 release after cell lysis (physical titer by ELISA, genome titer by qPCR); format: cell-based; details: for increase of AAV2 dissociation by addition to 0.5 M NaCl: 1% detergent added to 0.5 M NaCl, FIG. 2; for AAV2 viral titers after cell lysis: 90 min, 37° C., 0.5% Triton X-100, 0.5 M NaCl, or 0.5 M sodium chloride and 1% TDAO, FIG. 1 and 2
Description: as §1
The same process is performed as in Example 1 but with NaCl combined with different detergents.
To investigate the optimal concentration of TDAO in combination with 0.5 M NaCl, an AAV2 dissociation test using 0 to 4% of TDAO and including an additional lysis time of 60 min was performed. […] Furthermore, the best lysis time of 90 min was confirmed as before based on genome titers. When calculating % full viral particles (vp) as the ratio of genome titer to physical titer, it was noted that 2% TDAO also facilitated more release of full viral particles over time with ~100% full VP at 90 min post lysis due to unknown mechanisms (FIG. 4).

HEK293T-derived cells = assay: Turbidity post lysis and % cell lysis (ViCell XR) in 3L Mobius bioreactor; format: cell-based, human; details: AAV2, 3L Mobius at 72 hr PT; NaCl at 0.5 M; lysed cells to total cells before lysis
Description: Cell lysis performed according to the general procedure of Example 1 was performed with different reagents and compared in terms of turbidity reduction and lysis efficiency.
Each turbidity in Table 2 is an average of 1-3 bioreactors x 2 measurements. PT = post transfection. […] Cell counts were taken by ViCell XR before lysis and at 30 min post lysis, and % cell lysis was calculated as a ratio of lysed cells to total cells before lysis.

## CCCCCCCCCC[N+](C)(C)[O-] [N,N-Dimethyldecyl amine N-oxide]
[1]
  biodegradation in 28 days: 97%

## CCCCCCCCCCCCCCCC[N+](C)(C)[O-] [N,N-Dimethylhexa decylamine N-oxide]
[1]
  biodegradation in 28 days: <88%

## CCCCCCCCCCCC[N+](C)(C)[O-] [LDAO, N,N-Dimethyldode cylamine N-oxide]
[1]
  biodegradation in 28 days: 95%

## CCCCCCCC[N+](C)(C)[O-] [N,N-Dimethyloctyl amine N-oxide]
[1]
  biodegradation in 28 days: 100%

## CCCCCCCCCCCCCC[N+](C)(C)[O-] [TDAO, N,N-Dimethyltertra decylamine N-oxide]
AAV9
  AAV9 dissociation, double reagents with 2% TDAO compared to 1% TDAO: no benefits
[1]
  biodegradation in 28 days: 88%
AAV2; 0 to 4% of TDAO, genome titers, FIG. 3
  increase of AAV2 dissociation by addition of TDAO to 0.5 M NaCl: 3-5 fold
AAV2
  increase of AAV2 dissociation by addition to 0.5 M NaCl: 3-9 fold
AAV2; 2% TDAO with 0.5 M NaCl, 90 min post lysis, FIG. 4
  % full viral particles (ratio of genome titer to physical titer): ~ 100%

## Triton X-100 [reference compound]
AAV2
  increase of AAV2 dissociation by addition to 0.5 M NaCl: not
  AAV2 viral titers after cell lysis: significantly reduced viral titers

## [Cl-].[Na+] [NaCl, sodium chloride, reference compound]
HEK293T-derived cells
  % cell lysis after 30 min: 80%
AAV2
  AAV2 viral titers after cell lysis: significantly reduced viral titers
